Ends that are not written are not given here.

As a reminder, the Kd is the constant that tells how readily two partners part at equilibrium.

The target in one assay is T1, IPOA5 (Homo sapiens, UniProt P52294).
T1 construct: Expression and purification of full length IPOA5, IPO5 were perform according to methods described previously; His tag; made in house; host or cells: Escherichia coli BL21(DE3), pET21 vector
Nature of the assay: biochemical. Type of assay: binding.

A further assay concerns XPO1 (CRM1). Put plainly: HCV genotype 1 peptide array probed with Huh7.5 cell lysate. Type of assay: binding. The conditions noted are these: array of 15 residue peptides (8 residue overlaps), Huh7.5 lysate, anti-XPO1 antibody; a peptide bound. Here is the method:
(§1) However, various HCV proteins contain putative NLSs and NESs, [41], [53]. To identify potential interactions between cellular NTFs and HCV proteins, we designed a peptide array spanning the entire HCV genotype 1 consensus polyprotein sequence. These arrays were incubated with or without cell lysates and then probed using specific antibodies for components of the nuclear transport machinery. We detected binding of IPOA5 (importin α5/kap α1), IPO5 (importin β3/kap β3) and XPO1 (CRM1), but not IPO1 (importin β1/kap β1), to eleven distinct regions within HCV proteins (Fig. 1A, Table 1). All of the antibodies were also tested by western blotting of cell lysates to validate that they detected the corresponding NTF (Fig. 1B).
(§2) Figure 1 Identification of sequences within the HCV polyprotein that bind nuclear transport factors. (A) HCV genotype 1 peptide arrays consisting of 15 residue peptides (with 8 residue overlaps) spanning the complete HCV polypeptide were incubated with Huh7.5 cells lysates. Bound NTFs were detected using antibodies specific for the indicated NTF. Control peptide arrays were incubated with only NTF-specific antibodies. The different colored regions of the array represent peptides derived from different HCV proteins (see schematic). The last four peptides on the array are additional sequences which some of the HCV strains have in their polyproteins at the C terminus. (B) The same lysate used to probe the peptide arrays was also analyzed by western blotting to detect the indicated NTFs and assess the specificities of the antibodies. (C) Schematic summary of the localization of the NTF binding sites on the indicated HCV proteins.
(§3) A consensus sequence of HCV Genotype 1 polyprotein was used to design consecutive fifteen amino-acid residue peptides with eight residue overlaps along the complete polyprotein sequence. Peptides were synthesised by Intavis Bioanalytical Instruments (Koeln, Germany) using a CelluSpots peptide array synthesis technology. Peptide arrays were incubated in blocking buffer (TBS containing 0.05% tween 20 (v/v) and 10% skim milk (g/v)) overnight at 4°C on a gentle shaker. Following the blocking, the peptide arrays were washed three times with washing buffer (TBS containing 0.05% tween 20 (v/v)) for 5 min at room temperature on a gentle shaker. The peptide arrays were then incubated for 4 h with cell lysate from two T-75 flasks of fully confluent cells lysed by lysis buffer (10 mM Tris-HCl, pH 7.5, 150 mM NaCl, 2 mM EDTA, 0.1% Triton-X100, 1 mM PMSF, 2 µg/ml aprotinin, 2 µg/ml leupeptin and 0.1 units/µl RNasin) mixed with blocking buffer (ratio 1∶1 v/v) and incubated at room temperature on a gentle shaker. Following this incubation, peptide arrays were rinsed with washing buffer for 30 sec and then washed five times in washing buffer and each wash lasted for 5 min at room temperature on a gentle shaker. Following washing, the peptide arrays were incubated with the primary antibody as indicated in Fig. 1 (1∶100 dilution) for 4 h at room temperature on a gentle shaker. Arrays were then rinsed, washed as described above, and incubated with a complementary HRP conjugated secondary antibody (1∶1000) for 2 h at room temperature on a gentle shaker. The peptide arrays were then rinsed and washed as described above followed by initiation of HRP chemiluminescence with ECL detection reagent (GE Healthcare, RPN2106) and the signal was detected using Fuji RX film (Fujifilm, 47410 08399).

For assay [1], the system named is IPO5 (importin β3/kap β3). Described as above. Type of assay: binding. The conditions noted are these: array of 15 residue peptides (8 residue overlaps), Huh7.5 lysate, anti-IPO5 antibody; a peptide bound. Here is the method:
as §1, §2, §3

Assay [2] concerns IPOA5 (importin α5/kap α1). Described as above. Type of assay: binding. The conditions noted are these: array of 15 residue peptides (8 residue overlaps), Huh7.5 lysate, anti-IPOA5 antibody; a peptide bound. Here is the method:
as §1, §2, §3

For another assay, the system named is HEK293T cells. Put plainly: Localization of nuclear transport signal-double GFP reporter in HEK293T cells. Type of assay: cell-based. The conditions noted are these: double GFP cargo, 24 h post transfection, fluorescence quantified with ImageJ (S6, S7 Figures); NES/SEN on SV40 NLS double GFP. Also on record: key: +++ for strong; ++ for moderate; + for weak; − for no localization. The source says:
To determine whether NTF binding sites found in the HCV proteins were functional nuclear transport signals, we constructed reporter proteins each consisting of one of the HCV proteins NTF binding sites followed by two C-terminal, tandemly repeated GFP molecules. The double GFP moieties were required to keep the reporter from entering the nucleus, since a single GFP is small enough to diffuse freely through NPCs, [35]. As controls, constructs containing the reversed amino-acid residue sequence of the potential NLS (SLN) were also examined using the double GFP reporter assay (S5 Figure). These SLN reporters were predicted to not accumulate in the nucleoplasm. In addition, reporters to examine the functionality of the potential XPO1 binding domains were also constructed. These reporters consist of an SV40 NLS and a double GFP molecule followed by one of the various potential NESs at the C-terminus (S5 Figure). In the absence of a functional NES, this reporter will accumulate in the nucleus. However, a functional NES is predicted to export the reporter, leading to increased steady-state levels of the reporter in the cytoplasm.
Figure 4 Functionality of the putative nuclear transport signals in cells. Cells were transfected by the vectors encoding a nuclear transport reporter consisting of a tandemly repeated double GFP fused to the indicated C-terminal nuclear transport signal (panels A-N). At 24 h following transfection, cells were fixed and stained with Hoechst to visualize the nucleus. Cells were examined using a Zeiss inverted Axiovert 200 M microscope to assess the localization of the GFP (green) and its relationship to the nucleus (blue). A hashed yellow square demarcates the magnified area shown in the right-most image of each panel. Fluorescent intensity was quantified using ImageJ v. […] Analysis of the reverse sequences of each transport signal as well as the mutant SV40 NLS was also performed and the results are shown in S7 Figure.
Nuclear transport signals-double GFP constructs were transfected into HEK293T cells using lipofectamine 2000. At 24 h post transfection cells were fixed, stained, and visualized for localization of the GFP. For detailed information see S1 Methods.
Nuclear transport signal-double GFP constructs were transfected into HEK293T cells using lipofectamine 2000 reagent (Invitrogen, 11668019). At 24 h post transfection cells were fixed with 3.76% formaldehyde at room temperature (Sigma, F8775-500ML) for 8 min then permeabilized in 0.2% Triton X-100 (VWR, CA97062-208) for 2 min. Cells were washed three times with X1 PBS and were stained with Hoechst 1:5000 in X1 PBS for 5 min followed by three washes with X1 PBS. The cells were visualized using a Zeiss inverted Axiovert 200M microscope with a 20x/0.8 objective lens to examine localization of the GFP. At least ten random fields of cells were imaged for each combination. Channels were merged using ImageJ software (National Institutes of Health). Photoshop Elements 10 (Adobe) software was used to adjust brightness and contrast levels for individual images and to assemble images into figures.

The target in another assay is T2, IPO5 (Homo sapiens, UniProt O00410).
T2 construct: Expression and purification of full length IPOA5, IPO5 were perform according to methods described previously; His tag; made in house; host or cells: Escherichia coli BL21(DE3), pET21 vector
T2 sequence (O00410 whole entry): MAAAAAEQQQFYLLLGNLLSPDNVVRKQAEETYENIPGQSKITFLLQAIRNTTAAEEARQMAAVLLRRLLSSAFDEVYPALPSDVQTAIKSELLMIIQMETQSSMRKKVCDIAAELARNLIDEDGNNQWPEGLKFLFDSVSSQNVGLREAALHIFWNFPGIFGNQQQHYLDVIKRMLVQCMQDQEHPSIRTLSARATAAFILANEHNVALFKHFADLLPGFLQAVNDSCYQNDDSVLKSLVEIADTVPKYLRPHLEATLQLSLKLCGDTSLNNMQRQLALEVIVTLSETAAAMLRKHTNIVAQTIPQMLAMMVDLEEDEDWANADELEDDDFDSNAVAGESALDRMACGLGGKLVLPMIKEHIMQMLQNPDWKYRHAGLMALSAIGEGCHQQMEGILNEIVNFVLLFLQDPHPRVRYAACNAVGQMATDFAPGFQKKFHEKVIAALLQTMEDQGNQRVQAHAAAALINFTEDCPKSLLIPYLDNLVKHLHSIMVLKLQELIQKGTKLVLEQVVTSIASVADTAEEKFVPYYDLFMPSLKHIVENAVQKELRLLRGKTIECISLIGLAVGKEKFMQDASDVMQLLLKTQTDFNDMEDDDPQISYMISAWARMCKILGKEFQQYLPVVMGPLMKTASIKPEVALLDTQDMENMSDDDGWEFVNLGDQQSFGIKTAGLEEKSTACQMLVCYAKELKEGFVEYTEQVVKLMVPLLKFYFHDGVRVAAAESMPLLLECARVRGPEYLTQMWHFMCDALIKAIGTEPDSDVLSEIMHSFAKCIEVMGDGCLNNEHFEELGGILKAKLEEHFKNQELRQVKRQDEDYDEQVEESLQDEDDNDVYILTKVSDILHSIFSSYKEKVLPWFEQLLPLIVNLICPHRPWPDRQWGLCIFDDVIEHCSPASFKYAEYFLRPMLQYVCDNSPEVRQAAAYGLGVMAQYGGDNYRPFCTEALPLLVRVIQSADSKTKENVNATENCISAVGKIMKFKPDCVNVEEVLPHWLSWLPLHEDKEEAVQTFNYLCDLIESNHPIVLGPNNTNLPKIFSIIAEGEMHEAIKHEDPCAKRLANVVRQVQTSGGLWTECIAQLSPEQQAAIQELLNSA
Nature of the assay: biochemical. The assay is classed as binding.

T1 sequence (P52294 whole entry): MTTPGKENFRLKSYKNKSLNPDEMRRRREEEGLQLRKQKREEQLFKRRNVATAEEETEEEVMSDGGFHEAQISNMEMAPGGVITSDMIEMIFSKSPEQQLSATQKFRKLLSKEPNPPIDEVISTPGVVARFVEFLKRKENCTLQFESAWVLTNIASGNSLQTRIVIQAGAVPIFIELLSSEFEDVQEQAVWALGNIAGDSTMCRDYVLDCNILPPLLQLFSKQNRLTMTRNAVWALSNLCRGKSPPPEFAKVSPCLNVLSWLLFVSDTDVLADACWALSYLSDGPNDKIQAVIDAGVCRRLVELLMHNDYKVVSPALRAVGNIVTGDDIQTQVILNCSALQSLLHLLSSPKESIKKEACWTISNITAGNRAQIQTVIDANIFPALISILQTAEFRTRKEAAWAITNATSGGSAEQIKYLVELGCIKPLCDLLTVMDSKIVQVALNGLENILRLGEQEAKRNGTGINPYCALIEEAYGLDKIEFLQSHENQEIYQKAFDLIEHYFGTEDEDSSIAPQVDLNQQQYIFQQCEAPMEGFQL

At IPOA5, `CC[C@H](C)[C@H](NC(=O)[C@H](CCCCN)NC(=O)[C@@H](NC(=O)[C@H](CCC(N)=O)NC(=O)[C@H](CCCNC(=N)N)NC(=O)CNC(=O)[C@H](Cc1c[nH]c2ccccc12)NC(=O)[C@@H](NC(=O)[C@@H](NC(=O)[C@@H](NC(=O)[C@H](CCCCN)NC(=O)[C@H](CCCCN)NC(=O)[C@H](CCC(=O)O)NC(=O)[C@H](CCSC)NC(=O)[C@@H]1CCCN1C(=O)[C@H](CO)NC(=O)[C@H](Cc1ccccc1)NC(=O)[C@@H](NC(=O)[C@@H](NC(=O)[C@@H]1CCCN1)[C@@H](C)CC)[C@@H](C)CC)C(C)C)[C@@H](C)CC)C(C)C)[C@@H](C)CC)C(=O)N[C@@H](Cc1c[nH]c2ccccc12)C(=O)N[C@@H](Cc1ccccc1)C(=O)N[C@@H](CCC(N)=O)C(=O)N[C@@H](CC(N)=O)C(=O)N[C@@H](CCCNC(=N)N)C(=O)N[C@@H](CCCNC(=N)N)C(=O)N[C@@H](CCSC)C(=O)N[C@@H](CCCCN)C(=O)N[C@@H](Cc1c[nH]c2ccccc12)C(=O)N[C@@H](CCCCN)C(=O)N[C@@H](CCCCN)C(=O)O` [NS2 NLS] showed a Kd of 79.3 ± 3.89 nM.
`CC[C@H](C)[C@H](NC(=O)[C@H](CCCCN)NC(=O)[C@@H](NC(=O)[C@H](CCC(N)=O)NC(=O)[C@H](CCCNC(=N)N)NC(=O)[C@@H](NC(=O)[C@H](CCCCN)NC(=O)[C@H](CCCNC(=N)N)NC(=O)[C@H](CCCCN)NC(=O)[C@H](CCCCN)NC(=O)[C@H](CCCCN)NC(=O)[C@@H]1CCCN1)C(C)C)[C@@H](C)CC)C(=O)N[C@@H](Cc1c[nH]c2ccccc12)C(=O)N[C@@H](Cc1ccccc1)C(=O)N[C@@H](CCC(N)=O)C(=O)N[C@@H](CC(N)=O)C(=O)N[C@@H](CCCNC(=N)N)C(=O)N[C@@H](CCCNC(=N)N)C(=O)N[C@@H](CCSC)C(=O)N[C@@H](CCCCN)C(=O)N[C@@H](Cc1c[nH]c2ccccc12)C(=O)N[C@@H](CCCCN)C(=O)N[C@@H](CCCCN)C(=O)O` [SV40 NLS, reference compound] came in with a Kd on IPOA5 of 27.1 ± 4.23 nM.
With “FLLALLSCITVPVSA [A23, HCV genotype 1 array peptide, core residues 177-191]”, the “Binding to XPO1” value in the assay on XPO1 (CRM1) was “A23: 177-[…]-191”.
Consider “GVYLLPRRGPRLGVR [A5, HCV genotype 1 array peptide, core residues 33-47]”, for which the “Binds to IPO5” value in assay [1] is “A5: 33-[…]-47”. In addition, the “Binding to IPOA5” value in assay [2] was “A5: 33-[…]-47”.
For “GWVIVKKEMPSFIIPRQIKIWFQNRRMKWKK [NS2 SLN]”, in the assay with HEK293T cells, the “Localization Cytoplasmic” value is “+++” and the “Localization Nuclear” value is given as “−”.
Regarding “IPKDRRSTGKAWGKP [A9, HCV genotype 1 array peptide, core residues 65-79]”, the “Binds to IPO5” value in assay [1] was “A9: 65-[…]-79”. Also, the “Binding to IPOA5” value in assay [2] was “A9: 65-[…]-79”.
As for KAPTPPPRRRRTVGL [M3], in assay [1], the “Binds to IPO5” value is “M3: 2321-[…]-2335”.
As to “KVIDTLTCGFADLMG [A16, HCV genotype 1 array peptide, core residues 121-135]”, the “Binding to XPO1” value with XPO1 (CRM1) was “A16: 121-[…]-135”.
With “LPGFPFSIFLLALLS [A22, HCV genotype 1 array peptide, core residues 169-183]”, the “Binding to XPO1” value with XPO1 (CRM1) is “A22: 169-[…]-183”.
Turning to “MSTNPKPQRKTKRNT [A1, HCV genotype 1 array peptide, core residues 1-15]”, the “Binds to IPO5” value in assay [1] is “A1: 1-[…]-15”. Further, the “Binding to IPOA5” value in assay [2] is “A1: 1-[…]-15”.
With PARRRGDKRGALLSP [F24], the “Binds to IPO5” value in assay [1] was “F24: 1145-[…]-1159”.
PARRRGDKRRQIKIWFQNRRMKWKK [NS3 NLS 1] displayed a dissociation constant (Kd) at IPO5 of 33.8 ± 5.6 nM.
Take PIIFSPMEKKVIVWG [F3]: the “Binding to IPOA5” value in assay [2] was “F3: 977-[…]-991”.
On to PPPRRRRTVRQIKIWFQNRRMKWKK [NS5A NLS], for which the equilibrium dissociation constant (Kd) at IPOA5 was 7630 ± 259 nM; on IPO5 it was 32.3 ± 4.99 nM.
For PRHRSRNVGKRQIKIWFQNRRMKWKK [Core NLS 4], in that order: 518 ± 28.6 nM and 105 ± 31.1 nM.
“PSWGPTDPRHRSRNV [A14, HCV genotype 1 array peptide, core residues 105-119]”: the “Binds to IPO5” value in assay [1] was “A14: 105-[…]-119”.
“QPRGRRQPIPKDRRS [A8, HCV genotype 1 array peptide, core residues 57-71]”: in assay [1], the “Binds to IPO5” value was “A8: 57-[…]-71”. Further, in assay [2], the “Binding to IPOA5” value was “A8: 57-[…]-71”.
Turning to “RHRSRNVGKVIDTLT [A15, HCV genotype 1 array peptide, core residues 113-127]”, the “Binds to IPO5” value in assay [1] was “A15: 113-[…]-127”.
As for “RKTKRNTNRRPEDVK [A2, HCV genotype 1 array peptide, core residues 9-23]”, in assay [1], the “Binds to IPO5” value was “A2: 9-[…]-23”. In addition, the “Binding to IPOA5” value in assay [2] was “A2: 9-[…]-23”.
As to RRRTVGLSESTISEA [M4], the “Binds to IPO5” value in assay [1] was “M4: 2329-[…]-2343”.
For SQRRGRTGRGRQGTY [H19], the “Binds to IPO5” value in assay [1] is “H19: 1489-[…]-1503”. Also, in assay [2], the “Binding to IPOA5” value was “H19: 1489-[…]-1503”.
Regarding “TIFYQLWWILRALFLKYHPSLTLLILRQIKIWFQNRRMKWKK [NS2 SEN]”, in the assay with HEK293T cells, the “Localization Cytoplasmic” value was “−” and the “Localization Nuclear” value is on record as “+++”.
TLLGQCLWWLCYLLT [E10]: the “Binding to XPO1” value in the assay on XPO1 (CRM1) is “E10: 841-[…]-855”.
Turning to VPQDAVSRSQRRGRT [H18], in assay [1], the “Binds to IPO5” value was “H18: 1481-[…]-1495”. For the same compound, in assay [2], the “Binding to IPOA5” value was “H18: 1481-[…]-1495”.
On to VTRNADVIPARRRGD [F23], for which, in assay [1], the “Binds to IPO5” value was “F23: 1137-[…]-1151”.
For the compound VTRRRRPPPRQIKIWFQNRRMKWKK [NS5A SLN], in the assay with HEK293T cells, the “Localization Cytoplasmic” value is “+++” and the “Localization Nuclear” value is on record as “−”.

Source of the values: publication PMC4259358, “Functional Characterization of Nuclear Localization and Export Signals in Hepatitis C Virus Proteins and Their Role in the Membranous Web” (PLoS ONE, 2014).
